These results are taken from patent publication US20240132431A1, “METHOD FOR ALKYLATING ACIDIC FUNCTIONAL GROUP” (Chugai Seiyaku Kabushiki Kaisha, priority 2021, published 2024).

For this assay, the target named is T1, Bcl-2 protein (Recombinant Human Bcl-2 Protein) (Homo sapiens, UniProt P10415).
T1 construct: purchased Novus NBP2-34889
The assay is described as follows: Binding evaluation of mixture library compounds to Bcl-2 using AS-MS (affinity selection mass spectrometry). The settings on record: for ASMS ratio (%) n = 1 / ASMS ratio (%) n = 2: ASMS Ratio(%)=(A−C)/B×100; for ASMS ratio (%) n = 1: replicate n = 1; for ASMS ratio (%) n = 2: replicate n = 2. The essentials:
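Pooled library of ~1200 compounds ([…] each, final) incubated with recombinant human Bcl-2 (20 μM final) in Tris-HCl pH 7.4, NaCl, Tween-20, DTT buffer, dark, 23° C., 1 h. Bound fraction recovered by SEC spin column, organic extraction, reversed-phase LC/MS. ASMS Ratio (%) = (A−C)/B×100 versus protein-free standard and SEC blank.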

[1] abbreviates: AS-MS on the mixture of 1200 library compounds.
[2] abbreviates: AS-MS, mixture of 1200 compounds, Bcl-2.

T1 sequence (P10415 whole entry): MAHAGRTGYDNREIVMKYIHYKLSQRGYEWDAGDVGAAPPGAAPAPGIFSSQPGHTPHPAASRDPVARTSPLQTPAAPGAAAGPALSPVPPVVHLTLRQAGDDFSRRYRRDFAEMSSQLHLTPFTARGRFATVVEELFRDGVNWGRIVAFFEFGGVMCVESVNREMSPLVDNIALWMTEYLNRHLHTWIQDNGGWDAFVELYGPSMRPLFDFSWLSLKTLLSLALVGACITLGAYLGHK

Regarding `CCOc1cccc(-c2cnn(-c3cc(C(=O)N4CCN(c5ccc(C(=O)N(C)CC67CC8CC(CC(C8)C6)C7)nn5)CC4)cc(C(F)(F)F)c3)c2)c1` [B3A021-01, N-(1-Adamantylmethyl)-6-[4-[3-[4-(3-ethoxyphenyl)pyrazol-1-yl]-5-(trifluoromethyl)benzoyl]piperazin-1-yl]-N-methylpyridazine-3-carboxamide], under setting [1], the “ASMS ratio (%) n = 1” value is recorded as 12.5% and the “ASMS ratio (%) n = 2” value was −8.4%.

On to `CCOc1cccc(C#Cc2cc(C(=O)N3CCN(c4ccc(C(=O)N(C)CC56CC7CC(CC(C7)C5)C6)cc4)CC3)cc(C(F)(F)F)c2)c1` [B3A041-01, N-(1-Adamantylmethyl)-4-[4-[3-[2-(3-ethoxyphenyl)ethynyl]-5-(trifluoromethyl)benzoyl]piperazin-1-yl]-N-methylbenzamide], for which, under setting [1], the “ASMS ratio (%) n = 2” value is 425.9%.

Turning to `CCOc1cncc(C#Cc2cncc(C(=O)N3CCN(c4ccc(C(=O)NS(=O)(=O)CC56CC7CC(CC(C7)C5)C6)cc4)CC3)c2)c1` [B2A032-01, N-(1-Adamantylmethylsulfonyl)-4-[4-[5-[2-(5-ethoxypyridin-3-yl)ethynyl]pyridine-3-carbonyl]piperazin-1-yl]benzamide], under “AS-MS, mixture library, Bcl-2”, the “ASMS ratio (%) n = 1” value turned out to be 0.0% and the “ASMS ratio (%) n = 2” value is on record as 0.0%.

Turning to “6-[4-[3-[2-(5-Ethoxypyridin-3-yl)ethynyl]-5-(trifluoromethyl)benzoyl]piperazin-1-yl]-N-propylpyridazine-3-carboxamide [B1M018-01]”, under setting [2], the “ASMS ratio (%) n = 1” value came to 0.0% and the “ASMS ratio (%) n = 2” value was 0.0%.

Turning to `CCOc1cccc(-c2ccc(C(=O)N3CCN(c4ccc(C(=O)N(C)CC56CC7CC(CC(C7)C5)C6)nn4)CC3)cc2F)c1` [B3A005-01, N-(1-Adamantylmethyl)-6-[4-[4-(3-ethoxyphenyl)-3-fluorobenzoyl]piperazin-1-yl]-N-methylpyridazine-3-carboxamide], under setting [1], the “ASMS ratio (%) n = 1” value is −1.5% and the “ASMS ratio (%) n = 2” value was −4.8%.

Regarding `CCOc1cncc(-c2cc(CN3CCN(c4ccc(C(=O)NCC56CC7CC(CC(C7)C5)C6)cc4)CC3)cc(OC(F)(F)F)c2)c1` [B1A064-01, N-(1-Adamantylmethyl)-4-[4-[[3-(5-ethoxypyridin-3-yl)-5-(trifluoromethoxy)phenyl]methyl]piperazin-1-yl]benzamide], under setting [2], the “ASMS ratio (%) n = 1” value is 5.2% and the “ASMS ratio (%) n = 2” value is on record as −1.6%.

As for `CCOc1cncc(-c2csc(C(=O)N3CCN(c4ccc(C(=O)NS(C)(=O)=O)nn4)CC3)c2)c1` [B2I002-01, 6-[4-[4-(5-Ethoxypyridin-3-yl)thiophene-2-carbonyl]piperazin-1-yl]-N-methylsulfonylpyridazine-3-carboxamide], under “AS-MS, mixture library, Bcl-2”, the “ASMS ratio (%) n = 1” value was 0.0% and the “ASMS ratio (%) n = 2” value turned out to be 0.0%.

“6-[4-[[3-(5-Ethoxypyridin-3-yl)-5-(trifluoromethoxy)phenyl]methyl]piperazin-1-yl]-N-propylpyridazine-3-carboxamide [B1M035-01]”: under setting [2], the “ASMS ratio (%) n = 1” value was 2.9% and the “ASMS ratio (%) n = 2” value is −1.7%.

Consider “6-[4-[4-(3-Ethoxyphenyl)thiophene-2-carbonyl]piperazin-1-yl]-N-propylpyridazine-3-carboxamide [B1M081-01]”, for which, under setting [1], the “ASMS ratio (%) n = 1” value is 0.0% and the “ASMS ratio (%) n = 2” value is recorded as 0.0%.

As to `CCOc1cccc(C#Cc2ccccc2CN2CCN(c3ccc(C(=O)NS(C)(=O)=O)nn3)CC2)c1` [B2I095-01, 6-[4-[[2-[2-(3-Ethoxyphenyl)ethynyl]phenyl]methyl]piperazin-1-yl]-N-methylsulfonylpyridazine-3-carboxamide], the “ASMS ratio (%)” value was 0.0% (n = 1) and 0.0% (n = 2).

As to `CCOc1cccc(-c2ccc(CN3CCN(c4ccc(C(=O)NS(C)(=O)=O)nn4)CC3)c(OC)c2)c1` [B2I079-01, 6-[4-[[4-(3-Ethoxyphenyl)-2-methoxyphenyl]methyl]piperazin-1-yl]-N-methylsulfonylpyridazine-3-carboxamide], the “ASMS ratio (%)” value amounted to 0.0% (n = 1) and 0.0% (n = 2).

For `CCOc1cccc(-c2cc(OC)c(CN3CCN(c4ccc(C(=O)NS(C)(=O)=O)nn4)CC3)c(OC)c2)c1` [B2I085-01, 6-[4-[[4-(3-Ethoxyphenyl)-2,6-dimethoxyphenyl]methyl]piperazin-1-yl]-N-methylsulfonylpyridazine-3-carboxamide], the “ASMS ratio (%)” value worked out at 0.0% (n = 1) and 0.0% (n = 2).

In the case of “6-[4-[[3-Ethoxy-5-(5-ethoxypyridin-3-yl)phenyl]methyl]piperazin-1-yl]-N-propylpyridazine-3-carboxamide [B1M012-01]”, under setting [2], the “ASMS ratio (%) n = 1” value is recorded as −3.5% and the “ASMS ratio (%) n = 2” value is on record as −2.3%.

On to `CCOc1cccc(C#Cc2cncc(C(=O)N3CCN(c4ccc(C(=O)NCC(F)(F)F)cc4)CC3)c2)c1` [B1K031-01, 4-[4-[5-[2-(3-Ethoxyphenyl)ethynyl]pyridine-3-carbonyl]piperazin-1-yl]-N-(2,2,2-trifluoroethyl)benzamide], for which, under setting [2], the “ASMS ratio (%) n = 1” value is 0.0% and the “ASMS ratio (%) n = 2” value turned out to be 0.0%.

As for `CCOc1cccc(-c2cc(CN3CCN(c4ccc(C(=O)NS(=O)(=O)c5ccc(NCCSc6ccccc6)c(C(F)(F)F)c5)cc4)CC3)cc(OC(F)(F)F)c2)c1` [B2R063-01, 4-[4-[[3-(3-Ethoxyphenyl)-5-(trifluoromethoxy)phenyl]methyl]piperazin-1-yl]-N-[4-(2-phenylsulfanylethylamino)-3-(trifluoromethyl)phenyl]sulfonylbenzamide], the “ASMS ratio (%)” value is 8.2% (n = 1) and 4.6% (n = 2).

As to `CCOc1cccc(-c2ccc(C(=O)N3CCN(c4ccc(C(=O)NCC(F)(F)F)cc4)CC3)cc2F)c1` [B1K027-01, 4-[4-[4-(3-Ethoxyphenyl)-3-fluorobenzoyl]piperazin-1-yl]-N-(2,2,2-trifluoroethyl)benzamide], under setting [2], the “ASMS ratio (%) n = 1” value is on record as −0.8% and the “ASMS ratio (%) n = 2” value was −3.6%.

`CCOc1cncc(-c2csc(CN3CCN(c4ccc(C(=O)N(CC)CC)nn4)CC3)c2)c1` [B4J094-01]: for the setting “AS-MS, mixture library, Bcl-2”, the “ASMS ratio (%) n = 1” value is −1.3% and the “ASMS ratio (%) n = 2” value came out at 0.1%.

As to `CCOc1cncc(-c2cc(CN3CCN(c4ccc(C(=O)NS(=O)(=O)c5ccc(NCCSc6ccccc6)c([N+](=O)[O-])c5)cc4)CC3)cc(OC(F)(F)F)c2)c1` [B2Q064-01], under “AS-MS, mixture library, Bcl-2”, the “ASMS ratio (%) n = 1” value was found to be 8.6% and the “ASMS ratio (%) n = 2” value is −1.6%.

As to `CCOc1cccc(-c2cc(C(=O)N3CCN(c4ccc(C(=O)NCC56CC7CC(CC(C7)C5)C6)nn4)CC3)cc(C(F)(F)F)c2)c1` [B1A017-01, N-(1-Adamantylmethyl)-6-[4-[3-(3-ethoxyphenyl)-5-(trifluoromethyl)benzoyl]piperazin-1-yl]pyridazine-3-carboxamide], under setting [2], the “ASMS ratio (%) n = 1” value was 5.4% and the “ASMS ratio (%) n = 2” value was determined as 5.4%.

As for `CCOc1cncc(-c2ccc(C(=O)N3CCN(c4ccc(C(=O)N(C)CC56CC7CC(CC(C7)C5)C6)nn4)CC3)cc2C)c1` [B3A004-01, N-(1-Adamantylmethyl)-6-[4-[4-(5-ethoxypyridin-3-yl)-3-methylbenzoyl]piperazin-1-yl]-N-methylpyridazine-3-carboxamide], under setting [1], the “ASMS ratio (%) n = 1” value is on record as 3.5% and the “ASMS ratio (%) n = 2” value is −0.5%.

For the compound `CCOc1cccc(-c2ccc(CN3CCN(c4ccc(C(=O)Nc5ccc(OC)cc5)nn4)CC3)cc2F)c1` [B1O077-01, 6-[4-[[4-(3-Ethoxyphenyl)-3-fluorophenyl]methyl]piperazin-1-yl]-N-(4-methoxyphenyl)pyridazine-3-carboxamide], under setting [1], the “ASMS ratio (%) n = 1” value is recorded as 4.1% and the “ASMS ratio (%) n = 2” value is recorded as 0.4%.

As for `CCOc1cncc(-c2ccc(C(C)N3CCN(c4ccc(C(=O)NS(=O)(=O)CC56CC7CC(CC(C7)C5)C6)cc4)CC3)c(F)c2)c1` (stereo not shown) [B2A100-01, N-(1-Adamantylmethylsulfonyl)-4-[4-[1-[4-(5-ethoxypyridin-3-yl)-2-fluorophenyl]ethyl]piperazin-1-yl]benzamide], for the setting “AS-MS, mixture library, Bcl-2”, the “ASMS ratio (%) n = 1” value came to 0.0% and the “ASMS ratio (%) n = 2” value was determined as 0.0%.

In the case of `CCOc1cccc(C#Cc2ccccc2CN2CCN(c3ccc(C(=O)N(CC)CC)nn3)CC2)c1` [B4J095-01, 6-[4-[[2-[2-(3-Ethoxyphenyl)ethynyl]phenyl]methyl]piperazin-1-yl]-N,N-diethylpyridazine-3-carboxamide], for the setting “AS-MS, mixture library, Bcl-2”, the “ASMS ratio (%) n = 1” value is listed as 1.5% and the “ASMS ratio (%) n = 2” value worked out at 0.0%.

Regarding `CCOc1cccc(C#Cc2cncc(C(=O)N3CCN(c4ccc(C(=O)NS(=O)(=O)C(C)(C)C)nn4)CC3)c2)c1` [B2L009-01, N-tert-Butylsulfonyl-6-[4-[5-[2-(3-ethoxyphenyl)ethynyl]pyridine-3-carbonyl]piperazin-1-yl]pyridazine-3-carboxamide], the “ASMS ratio (%)” value was determined as 0.0% (n = 1) and 0.0% (n = 2).

For `CCOc1cncc(-c2ccc(CN3CCN(c4ccc(C(=O)Nc5ccc(OC)cc5)nn4)CC3)c3ccccc23)c1` [B1O092-01, 6-[4-[[4-(5-Ethoxypyridin-3-yl)naphthalen-1-yl]methyl]piperazin-1-yl]-N-(4-methoxyphenyl)pyridazine-3-carboxamide], under setting [1], the “ASMS ratio (%) n = 1” value came out at 6.3% and the “ASMS ratio (%) n = 2” value is −1.4%.
